# In patent US20170189294A1, “Non-Irritating, Non-Whitening Photoprotective Compositions” (Eveready Battery Company, Inc., priority 2013, published 2017):
# Key:
# flame extension test = assay type: physicochemical; conditions: propellant
# Method: In one embodiment, the photoprotective composition concentrate and propellant are added to an aerosol container in a ratio of about 70:30 to about 60:40. The tetraflouroethane and difluoroethane propellants were tested and are non-flammable in view of the flame extension test.
# In another embodiment, the photoprotective composition concentrate and propellant are added to an aerosol container in a ratio of about 70:30. The tetraflouroethane and isobutene propellants were evaluated to determine what blends of tetraflouroethane and isobutene propellants would provide a non-flammable product at a reasonable cost. […] In some embodiments having a photoprotective composition comprising a concentrate and at least one propellant, the ratio of the photoprotective composition and the propellant can be between about 2.5:1 and about 1.25:1.
# [1] = solubility/compatibility and stability observations in the compositions; assay type: physicochemical; conditions: three (3) months at 40° C.
# Source text: With regard to the photoprotective compositions of the present disclosure, it was observed that high levels of isohexadecane, especially those of about 70 wt. %, limited the solubility and/or compatibility of other ingredients which cause undesirable characteristics within the entire photoprotective composition such as, i.e., hazing, oily segregation, and/or precipitation from the composition, and combinations thereof. […] Dimethicone with a viscosity of about 350 cst at a 1 wt. % concentration, for example, causes hazing.
storage stability [1],SMILES,flammability (flame extension test)
–,"CC(F)F [difluoroethane, 1,1-difluoroethane]",non-flammable
–,FCC(F)(F)F [tetraflouroethane],non-flammable
crystals appeared,COc1ccc(C(=O)CC(=O)c2ccc(C(C)(C)C)cc2)cc1 [avobenzone],–
